Structures are written as SMILES.

What all share (type): in vivo, mice
The subject of one data set is β-cells. Put plainly: β-cell elimination and β-cell mass after alloxan injection, with or without PDL. As to the method:
(§1) Six- to ten-week old C57/B6 or ICR (Institute of Cancer Research) mice (Harlan Sprague Dawley, Inc.; Placentia, Calif., USA) were injected intravenously with Alloxan (Sigma Aldrich, St. Louis, Mo., USA) at 90 mg/kg. PDL was conducted essentially as described with the following minor modifications. Approximately 50% of the pancreas (the head) remained proximal to the ligation. For the mice receiving PDL plus A, PDL was performed 30 minutes after alloxan injection. Only mice with a blood sugar greater than 500 mg/dl (checked 48 hours after alloxan injection) were selected for experiments. Those mice were injected subcutaneously once daily with insulin glargine (Sanofi-Aventis, Paris, France).
Quantitation of β-cell Mass—β-cell mass was calculated as the relative β-cell area multiplied by pancreatic weight. For the quantitative analysis of insulin (+) cell area, we studied sections spaced 100 lm apart from each other from the tail of the pancreas per mouse. These sections were incubated with antisera to insulin (1:200, rabbit, Santa Cruz Biotechnology, Santa Cruz, Calif., USA) and the bound antibody was visualized by DAB (3,30-Diaminobenzidine) (Vector Laboratories, Burlingame, Calif., USA). The nuclei were stained by Hematoxylin (Surgipath, Richmond, Ill., USA). All slides were scanned and analyzed by using the Aperio ScanScope XT system (version 10, Aperio Technologies, Vista, Calif.).

For data set [1], the system named is insulin-positive and glucagon-positive cells of the pancreas. The data set is described as follows: Immunohistochemical marker quantification in pancreas after PDL plus alloxan. Here is the method:
as §1
Immunohistochemical Staining—Tissue was fixed in 4% formaldehyde for 6 hours at 4° C., washed in PBS (Phosphate buffered saline), followed by overnight in 30% sucrose at 4° C., then embedded in OCT (Optimal Cutting Temperature) compound and frozen at […]. Cryosections of 5 um thickness were incubated with antisera specific for insulin (1/200, guinea pig, USBIO, Swampscott, Mass., USA), insulin (1/200, rabbit, Santa Cruz Biotechnology, Santa Cruz, Calif., USA), glucagon (1/2,000, mouse, Sigma-Aldrich, St. Louis, Mo., USA), glucagon (1/50, rabbit, Abcam, Cambridge, Mass., USA), cytokeratin (Wide Spectrum Screening; 1/500, rabbit, DakoCytomation, Glostrup, Denmark), somatostatin (1/200, goat, Santa Cruz Biotechnology, Santa Cruz, Calif., USA), KI67 (1/50, mouse, BD Pharmingen, San Diego, Calif., USA), MafA (1/100, rabbit, Bethyl Laboratories, Montgomery, Tex., USA), MafB (1/100, rabbit, Bethyl Laboratories, Montgomery, Tex., USA), PDX1 (1/2,000, goat, Abcam, Cambridge, Mass., USA), Nkx6.1 (1/1,000, mouse, Beta Cell Biology Consortium, Nashville, Tenn., USA), 5-bromodeoxyuridine (BrdU; mouse, GE healthcare, Piscataway, N.J., USA), and C-peptide (1/100, rabbit, Cell Signaling, Danvers, Mass., USA). Secondary antibodies for detection of guinea pig, rabbit, goat, or mouse antibodies were labeled with: Alexa Fluor 488 (Invitrogen, Carlsbad, Calif., USA), Rhodamine Red (Jackson ImmunoResearch Laboratories, West Grove, Pa., USA), Cy5 (Jackson ImmunoResearch Laboratories, West Grove, Pa., USA). Nuclei were visualized with DAPI (40,6-diamidino-2-phenylindole) (Sigma Aldrich, St. Louis, Mo., USA).
Image and Statistical Analysis—All images were acquired by confocal scanning microscopy (Radiance 2100/AGR-3Q BioRad Multi-photon Laser Point Scanning Confocal Microscope). Images were processed with Image J software. The colocalization patterns in FIG. 4, FIGS. 18 and 19 were determined by the colocalization threshold algorithm in WCIF image J. Confocal z stacks were captured at 0.5 lm increments. Three dimensional reconstructions and measurements were performed by using Volocity software (version 5.3). Statistical significance of cell-specific changes in controls versus experimental groups was calculated by an unpaired Student's t-test. We considered p-values below 0.05 as statistically significant. For all statistical analysis, Graphpad Prism 5 was used. All results are expressed as mean±SD.

The nature of data set [2]: Mortality and glycemia following PDL plus alloxan. Here is the method:
as §1
The initial insulin dose was 1 unit per mouse (around […] in weight). If hyperglycemia was not controlled at that dose, it was raised gradually until diabetes was controlled. Even with careful management of diabetes, the mortality following PDL plus alloxan was high, around 50%.

[3] abbreviates: 14 days following alloxan plus PDL.
Setting [4] is: seven days following PDL plus alloxan.

With `O=C1NC(=O)C(=O)C(=O)N1` [alloxan], in the data set on β-cells (after alloxan), the “residual β-cells, of pre-existing β-cells” value was “less than 1%”. Further, the “pre-existing β-cells eliminated” value in the data set on β-cells (alloxan injection, by 3 days after injection) is reported as 99%. Besides, in the data set with β-cells (alloxan treatment alone, two weeks later), the β-cell regeneration result is recorded as “no evidence of β-cell regeneration”. Further, the “change in β-cell mass” value with β-cells (alloxan, between 3 and 14 days after injection) is given as “no change in the β-cell mass”. In addition, the β-cells eliminated result in the data set with β-cells (following PDL plus alloxan) is given as “greater than 99%”. Moreover, the “insulin-positive cells coexpressing glucagon” value came to 58% in data set [1] (1 week following PDL plus alloxan) and 21% in data set [1] (14 days following PDL plus alloxan). Moreover, the entries for the “frequency of replicating insulin-positive cells (Ki67)” value in data set [1] (3 days following alloxan plus PDL), in data set [1] (day 7 following PDL plus alloxan) and in data set [1] (day 14 following PDL plus alloxan) were 0.98%, 6% and “decreased to basal levels”, respectively. Also, the “replication rate of glucagon-positive cells” value in data set [1] (7 days following PDL plus alloxan) is 5%. For the same compound, in data set [1] (setting [3]), the “β-cells expressing MafA” value came out at 63%. The “β-cells expressing MafB” value in data set [1] (setting [3]) amounted to 22%. Also, in data set [1] (PDL plus alloxan, within 1 week), the “α-cells expressing PDX1” value is 11%. For the same compound, the “insulin positive cells expressing MafA” value in data set [1] (setting [4]) is 26%. In addition, in data set [1] (setting [4]), the “insulin positive cells expressing MafB” value is recorded as 64%. The normoglycemia result in data set [2] (PDL plus alloxan) was “did not achieve normoglycemia”. The mortality entry in data set [2] (following PDL plus alloxan, with insulin glargine management of diabetes) was “around 50%”.

The values above are taken from patent US20120270890A1, “Methods of Pancreatic Beta Cell Regeneration” (priority 2011, published 2012).
